Assay results taken from patent US9394297B2, “Amides as pim inhibitors” (AMGEN INC., priority 2012, dated 2016).
Read-outs that look alike come from different tables or passages of the source.

How the values were obtained:
Pim-1 [1] = target: T1, Pim-1 (Homo sapiens (Human), UniProt P11309); assay: Pim enzyme assay (HTRF, 96-well), Pim-1; assay type: biochemical; conditions: full length recombinant Pim-1, biotinylated-BAD (S112) peptide, 10-point curve, 2 h RT, read-out: Pim-1 IC50 IP
From the text: (§1) These cDNAs were used as templates in PCR reactions to produce full-length DNA clones of the PIMs. […] PCR products were digested with BclI and EcoRI for Pim-1 and BamHI and EcoRI for Pim-2 and ligated into a modified baculovirus transfer vector (pFastBac1) cleaved with BamHI and EcoRI. For bacterial expression, the same cleaved PCR products encoding Pim-1 or Pim-2 were ligated into a modified E. coli expression vector pET28(a) cleaved with BamHI and EcoRI. Amino-terminal hexahistidine tags followed by a thrombin cleavage site were previously added to the vectors using standard methods of molecular biology.
(§2) Recombinant baculoviruses expressing Pim-1 or Pim-2 were made using standard methods (Fastbac manual, Invitrogen, Carlsbad, Calif.). […] Cells were harvested by centrifugation and frozen at −80 C. For E. coli expression, cells carrying pET28-His6-Th-Pim-1 or pET28-His6-Th-Pim-2 were picked from a single colony and grown o/n in LB media. The o/n culture was used to inoculate a 2 liter flask with 500 mL media. This was grown o/n and used to inoculate 15-20 liters of Terrific Broth in a New Brunswick Scientific fermentor. The E. coli were grown at 37° C. to and OD600 >1.6. The temperature was dropped to 18° C. and o/n expression was induced with 0.5 mM IPTG. Cells were harvested by centrifugation and frozen at −80° C.
(§3) The slurry was centrifuged at 1,000×g for 5 min, the supernatant decanted, and the resin suspended in 40 mL of lysis wash buffer (lysis buffer at 0.75 M NaCl). This step was repeated 3× and the resin was transferred to a 2.5 cm glass column. Ten column volumes of wash buffer (0.05 M HEPES, pH 8.0, 0.1 M NaCl, 0.01 M 2-mercaptoethanol, 10%(w/v) glycerol) were applied to the resin followed by 10 column volumes of elution buffer (0.05 M HEPES, pH 8.0, 0.25 M NaCl, 0.01 M 2-mercaptoethanol, 10%(w/v) glycerol, 0.1 M imidazole). Fractions were analyzed by SDS-PAGE and those containing the protein of interest were pooled and concentrated. The concentrated protein was applied to an Amersham Superdex 75 (XK 26/60) column equilibrated in 0.025 M Tris-HCl, pH 7.5, 0.1 M NaCl, 0.01 M 2-mercaptoethanol, 10% (w/v) glycerol. […] Fractions containing the monomeric protein of interest were pooled, concentrated to ˜2 mg/mL, and stored at −80° C.
(§4) The phosphorylation of biotinylated-BAD (S112) peptide by full length recombinant Pim-1, Pim-2, or Pim-3 protein was detected with streptavidin:Allophycocyanin (APC) conjugate and a europium (Eu) labeled antibody directed against phosphorylated-BAD (S112). […] The fluorescence is directly proportional to the amount of phosphorylated BAD peptide present in the reaction. […] A reference compound was included on each assay plate in order to validate that plate; on one plate of every assay run, two additional reference compounds were included. The final buffer conditions were as follows: 60 mM Hepes, pH 7.0, 0.05% BSA, 2 mM DTT. Incubations were carried out at RT (22° C.) for 2 h for Pim-1, 1 hour and 30 min for Pim-3, and 45 min for Pim-2. The reaction was stopped by the addition of 3 mM EDTA, and fluorescence was measured by an HTRF® Rubystar microplate reader. For each plate, percent of control (POC) values were calculated for each well. Values for the IC50 IP were estimated using a standard 4-parameter logistic model.

[2] = tested on: KMS-12-BM myeloma cell line; assay: Pim KMS-12 cell assay (phospho-BAD S112 / total BAD, MSD)
Pim-2 [3] = target: T2, Pim-2 (Homo sapiens (Human), UniProt Q9P1W9); assay: Pim enzyme assay (HTRF, 96-well), Pim-2; assay type: biochemical; conditions: full length recombinant Pim-2, biotinylated-BAD (S112) peptide, 10-point curve, 45 min RT, read-out: Pim-2 IC50 IP
From the text: as §1, §2, §3, §4

Pim-1 [4] = target: T1, Pim-1; assay: Pim-Mn enzyme assay (HTRF, 384-well), Pim-1; assay type: biochemical; conditions: Pim-1 enzyme 5 pM, ATP 1.5 μM, BAD (S112) 0.5 μM, HTRF, 22-point curve; read-out: Pim-1-Mn IC50 IP
Pim-2 [5] = target: T2, Pim-2; assay: Pim-Mn enzyme assay (HTRF, 384-well), Pim-2; assay type: biochemical; conditions: Pim-2 enzyme 0.5 pM, ATP 1.5 μM, BAD (S112) 0.5 μM, HTRF, 22-point curve; read-out: Pim-2-Mn IC50 IP
[6] = Homo sapiens, KMS-12-BM, read-out: KMS-12-BM IC50 IP, KMS-12-BM cells, phospho-BAD (S112) vs total BAD, 1 hour 50 min with compound

T2 sequence (Q9P1W9 whole entry): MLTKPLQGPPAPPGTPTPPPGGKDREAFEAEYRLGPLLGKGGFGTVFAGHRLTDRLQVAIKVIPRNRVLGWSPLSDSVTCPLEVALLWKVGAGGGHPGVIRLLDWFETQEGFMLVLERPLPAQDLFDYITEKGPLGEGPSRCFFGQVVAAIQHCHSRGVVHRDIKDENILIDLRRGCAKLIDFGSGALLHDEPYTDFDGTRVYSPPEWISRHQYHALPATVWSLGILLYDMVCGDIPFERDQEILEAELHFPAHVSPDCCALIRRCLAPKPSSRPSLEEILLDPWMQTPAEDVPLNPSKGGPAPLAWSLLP
T1 sequence (P11309 whole entry): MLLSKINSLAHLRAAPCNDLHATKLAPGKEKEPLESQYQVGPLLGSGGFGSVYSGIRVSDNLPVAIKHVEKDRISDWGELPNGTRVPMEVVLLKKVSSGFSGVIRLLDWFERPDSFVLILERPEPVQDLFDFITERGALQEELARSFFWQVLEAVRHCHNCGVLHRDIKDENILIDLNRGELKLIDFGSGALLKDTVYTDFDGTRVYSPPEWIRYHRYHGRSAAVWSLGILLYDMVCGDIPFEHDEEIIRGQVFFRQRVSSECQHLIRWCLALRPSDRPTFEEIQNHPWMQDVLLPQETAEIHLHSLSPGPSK

Row | Structure (SMILES) | IC50 (Pim-1 [1]) [nM] | IC50 (Pim-2 [3]) [nM] | other results
1 | O=C(NC1CC1)c1ccc2cccc(-c3cc4c([nH]3)CCNC4=O)c2n1 [Example 94, N-cyclopropyl-8-(4-oxo-4,5,6,7-tetrahydro-1H-pyrrolo[3,2-c]pyridin-2-yl)quinoline-2-carboxamide] | 269 | – | –
2 | O=C1NCCn2cc(-c3cccc4ccc(C(=O)N5CCCC5)nc34)cc21 [Example 168, 7-(2-(pyrrolidine-1-carbonyl)quinolin-8-yl)-3,4-dihydropyrrolo[1,2-a]pyrazin-1(2H)-one] | 608 | – | –
3 | CC1CNC(=O)c2cc(-c3cccc4ccc(Cl)nc34)[nH]c21 (racemic) [Example 27, rac-2-(2-chloroquinolin-8-yl)-7-methyl-6,7-dihydro-1H-pyrrolo[3,2-c]pyridin-4(5H)-one] | – | 366 | –
4 | O=C1NCCc2[nH]c(-c3cccc4ccc(C5(c6ccccc6)CC5)nc34)cc21 [Example 114, 2-(2-(1-phenylcyclopropyl)quinolin-8-yl)-6,7-dihydro-1H-pyrrolo[3,2-c]pyridin-4(5H)-one] | – | 8.9 | IC50 [2, 6]: 4180 nM
5 | O=C1NCCc2[nH]c(-c3cccc4ccc(Sc5ccccc5)nc34)cc21 [Example 5, 2-(2-(phenylthio)quinolin-8-yl)-6,7-dihydro-1H-pyrrolo[3,2-c]pyridin-4(5H)-one] | – | 11.5 | IC50 [2, 6]: 5700 nM
6 | CN1CCN(C(=O)c2ccc3cccc(-c4cc5c([nH]4)CCNC5=O)c3n2)CC1 [Example 97, 2-(2-(4-methylpiperazine-1-carbonyl)quinolin-8-yl)-6,7-dihydro-1H-pyrrolo[3,2-c]pyridin-4(5H)-one] | 227 | – | –
7 | O=C1NCCc2[nH]c(-c3c(F)ccc4ccc(NC5CCCCC5)nc34)cc21 [Example 90, 2-(2-(cyclohexylamino)-7-fluoroquinolin-8-yl)-6,7-dihydro-1H-pyrrolo[3,2-c]pyridin-4(5H)-one] | 340 | – | –
8 | CCC1CNC(=O)c2cc(-c3cccc4ccc(Oc5ccccc5)nc34)[nH]c21 (racemic) [Example 23, rac-7-ethyl-2-(2-phenoxyquinolin-8-yl)-6,7-dihydro-1H-pyrrolo[3,2-c]pyridin-4(5H)-one] | 14.1 | – | –
9 | CC1Cc2[nH]c(-c3cccc4ccc(Nc5ccccc5)nc34)cc2C(=O)N1 (single isomer, unassigned) [Example 34, 6-methyl-2-(2-(phenylamino)quinolin-8-yl)-6,7-dihydro-1H-pyrrolo[3,2-c]pyridin-4(5H)-one] | – | 73.3 | –
10 | O=C(Nc1ccccc1)c1ccc2cccc(-c3cc4c([nH]3)CCNC4=O)c2n1 [Example 95, 8-(4-oxo-4,5,6,7-tetrahydro-1H-pyrrolo[3,2-c]pyridin-2-yl)-N-phenylquinoline-2-carboxamide] | 222 | – | –
11 | CC(Oc1ccc2cccc(-c3cc4c([nH]3)CCNC4=O)c2n1)C(F)(F)F (racemic) [Example 79, rac-2-(2-((1,1,1-trifluoropropan-2-yl)oxy)quinolin-8-yl)-6,7-dihydro-1H-pyrrolo[3,2-c]pyridin-4(5H)-one] | – | 204 | –
12 | CCC1CNC(=O)c2cc(-c3cccc4ccc(Cl)nc34)[nH]c21 (racemic) [Example 22, rac-2-(2-chloroquinolin-8-yl)-7-ethyl-6,7-dihydro-1H-pyrrolo[3,2-c]pyridin-4(5H)-one] | 60.9 | – | –
13 | COCCNC(=O)c1ccc2cccc(-c3cc4c([nH]3)CCNC4=O)c2n1 [Example 96, N-(2-methoxyethyl)-8-(4-oxo-4,5,6,7-tetrahydro-1H-pyrrolo[3,2-c]pyridin-2-yl)quinoline-2-carboxamide] | 283 | – | –
14 | CC1CNC(=O)c2cc(-c3cccc4ccc(Oc5ccccc5)nc34)[nH]c21 (racemic) [Example 28, rac-7-methyl-2-(2-phenoxyquinolin-8-yl)-6,7-dihydro-1H-pyrrolo[3,2-c]pyridin-4(5H)-one] | – | 61 | –

Second part, led by results:

Row | IC50 (Pim-1 [1]) [nM] | IC50 (Pim-2 [3]) [nM] | Structure (SMILES) | other results
15 | 0.6 | – | CCC1CNC(=O)c2cc(-c3cccc4cc(C)c(Nc5ccccc5)nc34)[nH]c21 (single isomer, unassigned) [Example 117, 7-ethyl-2-(3-methyl-2-(phenylamino)quinolin-8-yl)-6,7-dihydro-1H-pyrrolo[3,2-c]pyridin-4(5H)-one] | IC50 [2, 6]: 3150 nM
16 | – | > 1000 | Cc1nc2cccc(-c3cc4c([nH]3)CCNC4=O)c2nc1F [Example 126, 2-(3-fluoro-2-methylquinoxalin-5-yl)-6,7-dihydro-1H-pyrrolo[3,2-c]pyridin-4(5H)-one] | –
17 | 44.6 | – | Cc1nc2cccc(-c3cc4n(c3)CCNC4=O)c2nc1NC1CC1 [Example 233, 7-(3-(cyclopropylamino)-2-methylquinoxalin-5-yl)-3,4-dihydropyrrolo[1,2-a]pyrazin-1(2H)-one 2,2,2-trifluoroacetate] | IC50 (Pim-1 [4]): 25 nM; IC50 [2, 6]: 621 nM
18 | 243 | – | Cn1cc(-c2cccc3ccc(Nc4ccccc4)nc23)cc1C(N)=O [Example 164, 1-methyl-4-(2-(phenylamino)quinolin-8-yl)-1H-pyrrole-2-carboxamide] | –
19 | 8.9 | – | Cc1nc2cccc(-c3cc4c([nH]3)CCNC4=O)c2nc1NC1CCCCCC1 [Example 134, 2-(3-(cycloheptylamino)-2-methylquinoxalin-5-yl)-6,7-dihydro-1H-pyrrolo[3,2-c]pyridin-4(5H)-one] | –
20 | – | 34.2 | CC1Cc2[nH]c(-c3cccc4ccc(Nc5ccccc5)nc34)cc2C(=O)N1 (racemic) [Example 237, rac-6-methyl-2-(2-(phenylamino)quinolin-8-yl)-6,7-dihydro-1H-pyrrolo[3,2-c]pyridin-4(5H)-one] | IC50 [2, 6]: 6580 nM
21 | 41.8 | – | CC(C)CC1CNC(=O)c2cc(-c3cccc4cccnc34)[nH]c21 (racemic) [Example 125, rac-7-isobutyl-2-(quinolin-8-yl)-6,7-dihydro-1H-pyrrolo[3,2-c]pyridin-4(5H)-one] | IC50 (Pim-1 [4]): 21.1 nM; IC50 (Pim-2 [5]): 278 nM
22 | 1 | – | CCC1CNC(=O)c2cc(-c3cccc4cc(C)c(Nc5ccccc5)nc34)[nH]c21 (racemic) [Example 250, rac-7-ethyl-2-(3-methyl-2-(phenylamino)quinolin-8-yl)-6,7-dihydro-1H-pyrrolo[3,2-c]pyridin-4(5H)-one] | IC50 [2, 6]: 2820 nM
23 | – | 177 | Cc1nc2cccc(-c3cc4c([nH]3)CCNC4=O)c2nc1NC1CCC(=O)N(C)C1 (racemic) [Example 195, rac-2-(2-methyl-3-((1-methyl-6-oxopiperidin-3-yl)amino)quinoxalin-5-yl)-6,7-dihydro-1H-pyrrolo[3,2-c]pyridin-4(5H)-one 2,2,2-trifluoroacetate] | –
24 | 3.2 | – | CCC1CNC(=O)c2cc(-c3cccc4cc(C)c(Nc5ccccc5)nc34)[nH]c21 (single isomer, unassigned) [Example 118, 7-ethyl-2-(3-methyl-2-(phenylamino)quinolin-8-yl)-6,7-dihydro-1H-pyrrolo[3,2-c]pyridin-4(5H)-one] | IC50 ([2]; read-out: KMS-12-BM IC50 IP, KMS-12-BM cells, phospho-BAD (S112) vs total BAD, 1 hour 50 min with compound): 5210 nM
